The values that follow come from patent publication US10457707B2, “Substituted urea depsipeptide analogs as activators of the CLPP endopeptidase” (priority 2015, dated 2019).

In brackets after ≈: the same amount, converted by molar mass. Read-outs that look alike come from different tables or passages of the source. *1 amine or outer side, *2 acyl side, *3 side chain or, on linkers, in order; H or OH if unused. Where a SMILES comes first, the peptide text is derived from it. Bridges are numbered along the chain shown (N, C = ends). [ ]: non-standard residue; d: D form. The star is where a group is joined. ξ: configuration not given here. NH(1,3-benzodioxol-5-yl) = c1cc2c(cc1N*)OCO2; Phe(3,5-F2) = N[C@@H](Cc1cc(F)cc(F)c1)C(=O)O; NH(4-OCF3-phenyl) = FC(F)(F)Oc1ccc(N*)cc1; Morpholine(3S-CO) = O=C(O)[C@@H]1COCCN1; Pro(4R-Me) = C[C@H]1CN[C@H](C(=O)O)C1; NH(3,4-Me2-phenyl) = Cc1ccc(N*)cc1C; Hyp = O=C(O)[C@@H]1C[C@@H](O)CN1; Heptenoyl(2E) = CCCC/C=C/C(=O)*; NH(4-Me-phenyl) = Cc1ccc(N*)cc1; ξNMeThr = CNC(C(=O)O)[C@@H](C)O; aThr = C[C@H](O)[C@H](N)C(=O)O; Pip = O=C(O)[C@@H]1CCCCN1; NMeA = CN[C@@H](C)C(=O)O; CO = O=C([*:1])[*:2]; X7 = CC/C=C/C(=O)*; ξP = O=C(O)C1CCCN1

Common to all, as to assay type: cell-based
The subject of assay [1] is Streptococcus pyogenes, ATCC 700294. Description: Minimal inhibitory concentration assay (microbroth dilution). The method, boiled down: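 Plates with two-fold compound dilution series in broth were incubated overnight, aerobically, at 37° C, following CLSI microdilution guidance.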
On the technique in general: In broth dilution the organism is exposed to a series of concentrations in liquid medium.

Assay [2] has as its system Staphylococcus aureus, USA 300. Description: Minimal inhibitory concentration assay. The settings on record: USA300, read-out: Minimal Inhibitory Concentrations S. aureus USA 300. The method, boiled down: (§1)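 Compound is serially diluted two-fold in the appropriate broth, and bacterial inoculum at about 10^5 cfu/mL is added so the highest final concentration is 200 μM. Plates stay overnight at 37 °C under aerobic conditions before growth is scored by eye.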

Assay [3] deals with Staphylococcus aureus, USA 300 wherein ClpP is inactivated. Description: Minimal inhibitory concentration assay. The method in brief:
as §1

The mark [4] stands for this setting: Streptococcus pyogenes, ATCC700294; read-out: Minimal Inhibitory Concentrations S. pyogenes ATCC 700294.
Where [5] appears, read: Streptococcus pyogenes, ATCC700294, read-out: Minimal Inhibitory Concentrations S. pyogenes ATCC 700294.

On to `C[C@@H]1C[C@H]2C(=O)OC[C@H](NC(=O)[C@H](Cc3ccccc3)NC(=O)Nc3ccc4c(c3)OCO4)C(=O)N3CCC[C@H]3C(=O)N3CCCC[C@H]3C(=O)N[C@@H](C)C(=O)N2C1` [Compound 194, (S)-2-(3-(benzo[d][1,3]dioxol-5-yl)ureido)-N-((2R,6S,8aS,14aS,20S,23aS)-2,6-dimethyl-5,8,14,19,23-pentaoxooctadecahydro-1H,5H,14H,19H-pyrido[2,1-i]dipyrrolo[2,1-c:2′,1′-l][1]oxa[4,7,10,13]tetraazacyclohexadecin-20-yl)-3-phenylpropanamide], for which the MIC in assay [1] (setting [4]) was less than 0.2 µM. With `C[C@@H]1C[C@H]2C(=O)OC[C@H](NC(=O)[C@H](Cc3cc(F)cc(F)c3)NC(=O)Nc3ccc4c(c3)OCO4)C(=O)N3CCC[C@H]3C(=O)N3CCCC[C@H]3C(=O)N[C@@H](C)C(=O)N2C1` [Compound 195, (S)-2-(3-(benzo[d][1,3]dioxol-5-yl)ureido)-3-(3,5-difluorophenyl)-N-((2R,6S,8aS,14aS,20S,23aS)-2,6-dimethyl-5,8,14,19,23-pentaoxooctadecahydro-1H,5H,14H,19H-pyrido[2,1-i]dipyrrolo[2,1-c:2′,1′-l][1]oxa[4,7,10,13]tetraazacyclohexadecin-20-yl)propanamide], the MIC in assay [1] (setting [4]) was found to be 0.3 µM (≈ 0.247 µg/mL). Regarding `C[C@@H]1C[C@H]2C(=O)OC[C@H](NC(=O)[C@H](Cc3ccccc3)NC(=O)Nc3ccc(OC(F)(F)F)cc3)C(=O)N3CCC[C@H]3C(=O)N3CCCC[C@H]3C(=O)N[C@@H](C)C(=O)N2C1` [Compound 205], in assay [1] (setting [4]), the MIC amounted to 0.1 µM (≈ 0.0828 µg/mL). Consider `Cc1ccc(NC(=O)N[C@@H](Cc2ccccc2)C(=O)N[C@H]2COC(=O)[C@@H]3C[C@@H](C)CN3C(=O)[C@H](C)NC(=O)[C@@H]3CCCCN3C(=O)[C@@H]3CCCN3C2=O)cc1C` [Compound 206, (S)—N-((2R,6S,8aS,14aS,20S,23aS)-2,6-dimethyl-5,8,14,19,23-pentaoxooctadecahydro-1H,5H,14H,19H-pyrido[2,1-i]dipyrrolo[2,1-c:2′,1′-l][1]oxa[4,7,10,13]tetraazacyclohexadecin-20-yl)-2-(3-(3,4-dimethylphenyl)ureido)-3-phenylpropanamide], for which the MIC in assay [1] (setting [5]) was less than 0.2 µM.

`Cc1ccc(NC(=O)N[C@@H](Cc2cc(F)cc(F)c2)C(=O)N[C@H]2COC(=O)[C@@H]3C[C@@H](C)CN3C(=O)[C@H](C)NC(=O)[C@@H]3CCCCN3C(=O)[C@@H]3CCCN3C2=O)cc1C` [Compound 207, (S)-3-(3,5-difluorophenyl)-N-((2R,6S,8aS,14aS,20S,23aS)-2,6-dimethyl-5,8,14,19,23-pentaoxooctadecahydro-1H,5H,14H,19H-pyrido[2,1-i]dipyrrolo[2,1-c:2′,1′-l][1]oxa[4,7,10,13]tetraazacyclohexadecin-20-yl)-2-(3-(3,4-dimethylphenyl)ureido)propanamide]: the MIC in assay [1] (setting [5]) is less than 0.2 µM. Regarding `C[C@@H]1NC(=O)[C@H](C)N(C)C(=O)[C@@H]2CCCN2C(=O)[C@@H](NC(=O)[C@H](Cc2ccccc2)NC(=O)Nc2ccc(OC(F)(F)F)cc2)COC(=O)C2CCCN2C1=O` (stereo partly drawn) [Compound 213, (2S)-3-phenyl-2-(3-(4-(trifluoromethoxy)phenyl)ureido)-N-((6S,9S,11aS,17S)-6,9,10-trimethyl-5,8,11,16,20-pentaoxohexadecahydro-1H,5H,16H-dipyrrolo[2,1-c:2′,1′-l][1]oxa[4,7,10,13]tetraazacyclohexadecin-17-yl)propanamide] ({NH(4-OCF3-phenyl)-CO}-FSP[NMeA]A[ξP]; ester 2-C), the MIC in assay [1] (setting [4]) is 0.39 µM (≈ 0.307 µg/mL). For `Cc1ccc(NC(=O)N[C@@H](Cc2cc(F)cc(F)c2)C(=O)N[C@@H]2C(=O)N3C[C@H](O)C[C@H]3C(=O)N3CCOC[C@H]3C(=O)N[C@@H](C)C(=O)N3C[C@H](C)C[C@H]3C(=O)O[C@H]2C)cc1C` [Compound 215, (S)-3-(3,5-difluorophenyl)-2-(3-(3,4-dimethylphenyl)ureido)-N-((6aS,8R,12S,13S,15aS,17R,21S,23aS)-8-hydroxy-13,17,21-trimethyl-6,11,15,20,23-pentaoxooctadecahydro-6H,11H,15H-[1,4]oxazino[3,4-i]dipyrrolo[2,1-c:2′,1′-l][1]oxa[4,7,10,13]tetraazacyclohexadecin-12-yl)propanamide] ({NH(3,4-Me2-phenyl)-CO}-[Phe(3,5-F2)][aThr][Hyp][Morpholine(3S-CO)]A[Pro(4R-Me)]; ester 2-C), the MIC was 0.8 µM (≈ 0.672 µg/mL) in assay [2] and less than 0.2 µM in assay [1] (setting [5]). Regarding `CC/C=C/C(=O)N[C@@H](Cc1cc(F)cc(F)c1)C(=O)N[C@@H]1C(=O)N2C[C@H](O)C[C@H]2C(=O)N2CCCC[C@H]2C(=O)N[C@@H](C)C(=O)N2C[C@H](C)C[C@H]2C(=O)O[C@H]1C` [Compound 300] (X7-[Phe(3,5-F2)][aThr][Hyp][Pip]A[Pro(4R-Me)]; ester 2-C), the “Minimal Inhibitory Concentrations S. aureus USA 300 ΔClpP” value in assay [3] is more than 20 µM. The MIC in assay [2] worked out at 2.5 µM (≈ 1.93 µg/mL). The like results for `CCCC/C=C/C(=O)N[C@@H](Cc1cc(F)cc(F)c1)C(=O)N[C@@H]1C(=O)N2C[C@H](O)C[C@H]2C(=O)N2CCCC[C@H]2C(=O)N[C@@H](C)C(=O)N2C[C@H](C)C[C@H]2C(=O)O[C@H]1C` [Compound 301, (E)-N—((S)-3-(3,5-difluorophenyl)-1-(((2R,6S,8aS,14aS,16R,20S,21S,23aS)-16-hydroxy-2,6,21-trimethyl-5,8,14,19,23-pentaoxooctadecahydro-1H,5H,14H,19H-pyrido[2,1-i]dipyrrolo[2,1-c:2′,1′-l][1]oxa[4,7,10,13]tetraazacyclohexadecin-20-yl)amino)-1-oxopropan-2-yl)hept-2-enamide] ({Heptenoyl(2E)}-[Phe(3,5-F2)][aThr][Hyp][Pip]A[Pro(4R-Me)]; ester 2-C) were, in that order, more than 20 µM and 0.079 µM (≈ 0.0633 µg/mL). In the case of `C[C@@H]1C[C@H]2C(=O)OC[C@H](NC(=O)[C@H](Cc3cc(F)cc(F)c3)NC(=O)Nc3ccc4c(c3)OCO4)C(=O)N3C[C@H](O)C[C@H]3C(=O)N3CCOC[C@H]3C(=O)N[C@@H](C)C(=O)N2C1` [Compound 318, (S)-2-(3-(benzo[d][1,3]dioxol-5-yl)ureido)-3-(3,5-difluorophenyl)-N-((6aS,8R,12S,15aS,17R,21S,23aS)-8-hydroxy-17,21-dimethyl-6,11,15,20,23-pentaoxooctadecahydro-6H,11H,15H-[1,4]oxazino[3,4-i]dipyrrolo[2,1-c:2′,1′-l][1]oxa[4,7,10,13]tetraazacyclo-hexadecin-12-yl)propanamide] ({NH(1,3-benzodioxol-5-yl)-CO}-[Phe(3,5-F2)]S[Hyp][Morpholine(3S-CO)]A[Pro(4R-Me)]; ester 2-C), the values for the MIC in assay [2] and in assay [1] (setting [4]) were 100 µM (≈ 84.2 µg/mL) and 0.625 µM (≈ 0.526 µg/mL), respectively.

As for `Cc1ccc(NC(=O)N[C@@H](Cc2cc(F)cc(F)c2)C(=O)N[C@H]2COC(=O)[C@@H]3C[C@@H](C)CN3C(=O)[C@H](C)NC(=O)C([C@@H](C)O)N(C)C(=O)[C@@H]3CCCN3C2=O)cc1` (stereo partly drawn) [Compound 322, (S)-3-(3,5-difluorophenyl)-N-((2R,6S,9R,11aS,17S,20aS)-9-((R)-1-hydroxyethyl)-2,6,10-trimethyl-5,8,11,16,20-pentaoxohexadecahydro-1H,5H,16H-dipyrrolo[2,1-c:2′,1′-l][1]oxa[4,7,10,13]tetraazacyclohexadecin-17-yl)-2-(3-(p-tolyl)ureido)propanamide] ({NH(4-Me-phenyl)-CO}-[Phe(3,5-F2)]SP[ξNMeThr]A[Pro(4R-Me)]; ester 2-C), in assay [3], the “Minimal Inhibitory Concentrations S. aureus USA 300 ΔClpP” value was 0.625 µM. Besides, the MIC in assay [1] (setting [5]) was 0.625 µM (≈ 0.499 µg/mL).
